The subject of one series is DOHH-2. As to the kind of experiment: Antiproliferative activity against human DOHH2 cells after 72 hrs by CellTiter-Glo luminescent cell viability assay. It counts as functional, cell-based. As to conditions: DOHH-2, 72 h. (Cellular ATP, detected with luciferase, serves as a proxy for viable cell number.)
A short description of series [1]: Antiproliferative activity against human Mino cells after 72 hrs by CellTiter-Glo luminescent cell viability assay. It counts as functional, cell-based.
Another series relates to SU-DHL-6. Nature of the series: Antiproliferative activity against human SU-DHL6 cells after 72 hrs by CellTiter-Glo luminescent cell viability assay. As to conditions: SU-DHL-6, 72 h. The series is classed as functional, cell-based.
Series [2] in a line: Antiproliferative activity against human WSU-DLCL2 cells after 72 hrs by CellTiter-Glo luminescent cell viability assay. It counts as functional, cell-based. As to conditions: WSUDLCL2, 72 h.
The nature of series [3]: Cytotoxicity against human PBMC assessed as inhibition of cell proliferation at 30 uM after 72 hrs by CellTiter-Glo luminescent cell viability assay relative to control. The series is classed as cell-based. As to conditions: PBMC (peripheral blood mononuclear cells).
Series [4] addresses T1, Tyrosine-protein kinase BTK (Homo sapiens, UniProt Q06187). Nature of the series: Inhibition of recombinant full-length human N-terminal GST-fused BTK (2 to 659 residues) expressed in baculovirus expression system at 1 uM using biotin-labelled peptide as substrate measured after 50 mins by TR-FRET assay relative to control. (In general: TR-FRET usually uses a lanthanide donor and a delayed reading to cut background.)

In series [5] the target is T1, Tyrosine-protein kinase BTK. Nature of the series: Inhibition of recombinant full-length human N-terminal GST-fused BTK (2 to 659 residues) expressed in baculovirus expression system using biotin-labelled peptide as substrate measured after 50 mins by TR-FRET assay.
Another series concerns Ramos. Nature of the series: Antiproliferative activity against human Ramos cells after 48 hrs by CCK8 assay. The series is classed as functional, cell-based. On the technique in general: Tetrazolium dyes change colour on reduction, which living cells bring about.
In the next series the test system is Raji. Nature of the series: Antiproliferative activity against human Raji cells after 48 hrs by CCK8 assay. The series is classed as functional, cell-based.
A further series concerns PBMC. As to the kind of experiment: Cytotoxicity against human PBMC after 72 hrs by CellTiter-Glo luminescent cell viability assay. The series is classed as cell-based.

The text below walks through data of ChEMBL document CHEMBL4371038, “Synthesis and biological evaluation of novel 1-substituted 3-(3-phenoxyprop-1-yn-1-yl)-1H-pyrazolo[3,4-d]pyrimidin-4-amines as potent Bruton's tyrosine kinase (BTK) inhibitors” (Bioorg Med Chem Lett, 2019).

As a reminder, the IC50 is the concentration that inhibits the measured activity by half. Usually inhibition stands for the relative decrease from the control value, in per cent.

Some results are limits rather than exact numbers.

T1 sequence (Q06187 whole entry, the tested form may be a part): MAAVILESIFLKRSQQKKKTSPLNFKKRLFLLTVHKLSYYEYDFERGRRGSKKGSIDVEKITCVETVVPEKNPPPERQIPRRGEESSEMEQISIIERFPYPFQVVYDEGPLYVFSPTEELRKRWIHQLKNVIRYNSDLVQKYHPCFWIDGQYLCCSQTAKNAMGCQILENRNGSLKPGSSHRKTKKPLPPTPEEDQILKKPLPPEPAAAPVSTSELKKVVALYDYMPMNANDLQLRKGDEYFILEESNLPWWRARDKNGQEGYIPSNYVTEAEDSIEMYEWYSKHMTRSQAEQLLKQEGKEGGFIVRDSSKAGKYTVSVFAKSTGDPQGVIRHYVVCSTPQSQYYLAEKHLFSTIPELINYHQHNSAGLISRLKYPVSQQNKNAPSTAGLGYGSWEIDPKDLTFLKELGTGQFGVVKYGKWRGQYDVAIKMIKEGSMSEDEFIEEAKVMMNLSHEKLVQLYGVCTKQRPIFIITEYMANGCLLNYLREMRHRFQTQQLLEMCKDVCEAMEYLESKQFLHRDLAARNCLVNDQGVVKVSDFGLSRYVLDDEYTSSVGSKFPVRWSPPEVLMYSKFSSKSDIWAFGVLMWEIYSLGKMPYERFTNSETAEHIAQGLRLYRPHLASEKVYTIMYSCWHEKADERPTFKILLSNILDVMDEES

Consider `C=CC(=O)N1CCC[C@@H](n2nc(-c3ccc(Oc4ccccc4)cc3)c3c(N)ncnc32)C1` [IBRUTINIB], for which the IC50 is 33.4 nM with DOHH-2, 3150 nM in series [1], 874 nM with SU-DHL-6 and 487 nM in series [2]. For the same compound, in series [3], the inhibition at 72 h, 30 µM is 69%.
On to `C#CC(=O)N1CCC[C@@H](n2nc(C#CCOc3ccccc3)c3c(N)ncnc32)C1`, for which the inhibition in [4] amounted to 102%. Moreover, the IC50 in series [5] was found to be 11.1 nM; in the series with Ramos it was 9940 nM; in the series on Raji, 2370 nM; in the series with DOHH-2, 12.8 nM; in series [1], 67.9 nM; in the series on SU-DHL-6, 26.6 nM. For the same compound, the IC50 is 14.1 nM in series [2] and 4120 nM in the series with PBMC.
`Nc1ncnc2c1c(C#CCOc1ccccc1)nn2[C@@H]1CCCN(C(=O)/C=C/CN2CCOCC2)C1`: the inhibition in [4] is 86.1%.
Turning to `C/C=C(\C#N)C(=O)N1CCC[C@@H](n2nc(C#CCOc3ccccc3)c3c(N)ncnc32)C1`, the inhibition in series [4] came out at 98.5%. Also, the IC50 is 7.8 nM in series [5], 25800 nM with Ramos and 17600 nM with Raji.
The corresponding values for `C=CS(=O)(=O)N1CCC[C@@H](n2nc(C#CCOc3ccccc3)c3c(N)ncnc32)C1` are 104%, 4.2 nM, greater than 40000 nM and greater than 40000 nM.
In the case of `N#C/C(=C\C1CC1)C(=O)N1CCC[C@@H](n2nc(C#CCOc3ccccc3)c3c(N)ncnc32)C1`, in series [4], the inhibition was 97.1%. Further, the IC50 in [5] was 11.1 nM; in the series with Ramos, 9060 nM; in the series on Raji, 2090 nM; with DOHH-2, greater than 10000 nM; in [1], 8850 nM; in the series on SU-DHL-6, greater than 10000 nM. The IC50 is greater than 10000 nM in [2] and greater than 30000 nM in the series on PBMC.
On to `Nc1ncnc2c1c(C#CCOc1ccccc1)nn2[C@@H]1CCCN(C(=O)/C=C/Cn2cncn2)C1`, for which the inhibition in series [4] came to 76.3%.
As to `C=CC(=O)N1CC[C@@H](n2nc(C#CCOc3ccccc3)c3c(N)ncnc32)C1`, the inhibition in series [4] stood at 96.1%. Moreover, in series [5], the IC50 amounted to 18.8 nM.
The corresponding values for `CC#CC(=O)N1CCC[C@@H](n2nc(C#CCOc3ccccc3)c3c(N)ncnc32)C1` are 99.7% and 28.3 nM.
In the case of `C=CC(=O)N1CCC[C@H]1Cn1nc(C#CCOc2ccccc2)c2c(N)ncnc21`, the inhibition in series [4] amounted to 42.9%.
On to `C=CC(=O)N(C)CCn1nc(C#CCOc2ccccc2)c2c(N)ncnc21`, for which, in series [4], the inhibition worked out at 48.5%.
Regarding `CC(C)/C=C(\C#N)C(=O)N1CCC[C@@H](n2nc(C#CCOc3ccccc3)c3c(N)ncnc32)C1`, in series [4], the inhibition turned out to be 99.6%. The results for the IC50 (in [5]; in the series with Ramos; in the series on Raji) were 9.7 nM, greater than 40000 nM and greater than 40000 nM, respectively.
`C=CC(=O)NCCn1nc(C#CCOc2ccccc2)c2c(N)ncnc21`: the inhibition in [4] stood at 27.1%.
For the compound `C=CC(=O)N[C@H]1CC[C@@H](n2nc(C#CCOc3ccccc3)c3c(N)ncnc32)CC1`, the inhibition in series [4] is 101%. The IC50 in series [5] came to 14.8 nM.
With `C=C(F)C(=O)N1CCC[C@@H](n2nc(C#CCOc3ccccc3)c3c(N)ncnc32)C1`, in series [4], the inhibition was determined as 73.8%.
Consider `C=CC(=O)N1CCC[C@@H](n2nc(C#CCOc3ccccc3)c3c(N)ncnc32)C1`, for which the IC50 was 18.1 nM in the series on DOHH-2; 3730 nM in [1]; 1630 nM with SU-DHL-6; 395 nM in series [2]; greater than 30000 nM in the series with PBMC.
On to `Nc1ncnc2c1c(C#CCOc1ccccc1)nn2[C@@H]1CCCN(C(=O)/C=C/CBr)C1`, for which, in series [4], the inhibition was found to be 92.2%. In [5], the IC50 amounted to 13.2 nM.
